The text below walks through data of patent US9784752B2, “Venlafaxine assay” (Randox Laboratories, Limited, priority 2012, dated 2017).

Molecules are shown by their SMILES. Converted amounts (≈) assume the structure as drawn.

The test system of the test is polyclonal antibody raised to Immunogen II. Put plainly: Competitive biochip immunoassay (Evidence Investigator) with Hapten-1 HRP detecting agent. To be noted: for % Cross-reactivity: %CR calculated from IC50 ratio x 100; for IC50: concentration causing 50% displacement of signal, competition with Hapten-1 HRP for immobilised polyclonal antibody, 30 minutes at 30° C. The class given is binding, sheep. On the procedure:
A semi-automated Evidence Investigator analyser (Randox Laboratories Ltd., Crumlin, UK) was used as the platform for a biochip assay for the detection of venlafaxine and O-desmethylvenlafaxine. Immunogen II was administered to adult sheep on a monthly basis to provide target-specific polyclonal antisera. IgG was extracted from the antisera, and the purified antibody was immobilised on a biochip (9 mm×9 mm). The assay is based on competition for binding sites of a polyclonal antibody between Hapten-1HRP detecting agent (Example 10) and venlafaxine and O-desmethylvenlafaxine and potential cross-reactants. The antibody was immobilised and stabilised onto the biochip surface as previously described (Fitzgerald et al., 2005). Assay diluent (155 μL), calibrator/venlafaxine and O-desmethylvenlafaxine or potential cross-reactant (25 μL) followed by Hapten-1 HRP detecting agent (120 μL) were added to the appropriate biochip. The biochips were then incubated for 30 minutes at 30° C. on a thermoshaker set at 370 rpm. The biochips were then subjected to 2 quick wash cycles using the wash buffer provided, followed by 4×2 minute wash cycles. 250 μL of signal (1:1 luminol+peroxide, v/v) was then added to each biochip, and after 2 minutes the biochip carrier was imaged in the Evidence Investigator analyser. Calibration curves were generated and these were used to determine the sensitivity and specificity of the immunoassay for venlafaxine, O-desmethylvenlafaxine and potential cross-reactants.
Table 1, cross-reactivity being calculated according to the following formula: %CR=IC50,O-desmethylvenlafaxine/IC50,CR×100 where % CR is the percentage cross-reactivity, IC50, O-desmethylvenlafaxine is the concentration of O-desmethylvenlafaxine which causes 50% displacement of signal and IC50, CR is the concentration of venlafaxine or potential cross-reactant that causes 50% displacement of signal.

Consider `CN(C)CC(c1ccc(O)cc1)C1(O)CCCCC1` (racemic) [O-Desmethylvenlafaxine, (RS)-1-[2-(dimethylamino)-1-(4-hydroxyphenyl)ethyl]cyclohexanol], for which the “% Cross-reactivity” value is recorded as 48.4% and the “IC50” value turned out to be 0.03786 µg/mL (≈ 0.144 µM). The like results for `COc1ccc(C(CN(C)C)C2(O)CCCCC2)cc1` (racemic) [Venlafaxine, (RS)-1-[2-(dimethylamino)-1-(4-methoxyphenyl)ethyl]cyclohexanol] were, in that order, 100% and 0.01831 µg/mL (≈ 0.066 µM). For `CCOC(=O)C1(c2ccccc2)CCN(C)CC1` [Meperidine], the “% Cross-reactivity” value was under 5.7%. `COC(=O)C(c1ccccc1)C1CCCCN1` (centres unmarked) [Methylphenidate]: the “% Cross-reactivity” value was under 5.7% and the “IC50” value was over 0.32 µg/mL.

In the case of `CNCC1CCCCC1(O)c1cccc(OC)c1` (centres unmarked) [N-Desmethyltramadol], the “% Cross-reactivity” value is on record as under 5.7% and the “IC50” value is over 0.32 µg/mL. Consider `CN(C)C[C@H]1CCCC[C@]1(O)c1cccc(O)c1` [O-Desmethyltramadol], for which the “% Cross-reactivity” value was under 5.7% and the “IC50” value was over 0.32 µg/mL.

As for `c1ccc(C2(N3CCCCC3)CCCCC2)cc1` [PCP], the “% Cross-reactivity” value is reported as under 5.7% and the concentration for half-maximal inhibition (IC50) was over 0.32 µg/mL. For the compound `COc1cccc(C2(O)CCCCC2CN(C)C)c1` (centres unmarked) [Tramadol], the “% Cross-reactivity” value was under 5.7%.

Usually IC50 stands for the concentration needed to halve the response being measured. Higher therefore signals weaker potency in that assay.
